Data set [1] deals with Human alphaherpesvirus 1. Description: Anti-viral activity against Herpes simplex virus-1 harboring EGFP infected in iPSC-derived neurons assessed as reduction in ICP0 expression treated 2 hrs post infection measured after 72 hrs by Alexa fluor 488 staining based flow cytometric analysis. It counts as functional. On the technique in general: Flow cytometry measures light scatter and fluorescence of single cells or particles in a stream.

In data set [2] the test system is Human alphaherpesvirus 1. Description: Anti-viral activity against Herpes simplex virus-1 harboring EGFP infected in iPSC-derived neurons assessed as viable cells at 50 mM treated 2 hrs post infection measured after 72 hrs by Alexa fluor 488 staining based flow cytometric analysis (reference value: 17.8%). It counts as functional.
Data set [3] relates to Human alphaherpesvirus 1. Description: Anti-viral activity against Herpes simplex virus-1 harboring EGFP infected in iPSC-derived neurons assessed as reduction in ICP0 expression at 10 to 50 uM treated 2 hrs post infection measured after 72 hrs by Alexa fluor 488 staining based flow cytometric analysis. It counts as functional.
Data set [4] deals with Human alphaherpesvirus 1. Description: Anti-viral activity against Herpes simplex virus-1 harboring EGFP infected in iPSC-derived neurons assessed as necrotic cells at 50 mM treated 2 hrs post infection measured after 72 hrs by Alexa fluor 488 staining based flow cytometric analysis (reference value: 3.33%). It counts as functional.
Data set [5] has as its system Human alphaherpesvirus 1. Description: Anti-viral activity against Herpes simplex virus-1 harboring EGFP infected in iPSC-derived neurons assessed as late apoptotic cells at 10 mM treated 2 hrs post infection measured after 72 hrs by Alexa fluor 488 staining based flow cytometric analysis (reference value: 65.7%). It counts as functional.
The subject of data set [6] is Human alphaherpesvirus 1. In words: Anti-viral activity against Herpes simplex virus-1 harboring EGFP infected in iPSC-derived neurons assessed as late apoptotic cells at 50 mM treated 2 hrs post infection measured after 72 hrs by Alexa fluor 488 staining based flow cytometric analysis (reference value: 65.7%). It counts as functional.
Data set [7] deals with Human alphaherpesvirus 1. In words: Anti-viral activity against Herpes simplex virus-1 harboring EGFP infected in iPSC-derived neurons assessed as early apoptotic cells at 10 mM treated 2 hrs post infection measured after 72 hrs by Alexa fluor 488 staining based flow cytometric analysis (reference value: 13.2%). The format is functional.
Data set [8] has as its system Human alphaherpesvirus 1. Description: Anti-viral activity against Herpes simplex virus-1 harboring EGFP infected in iPSC-derived neurons assessed as necrotic cells at 10 mM treated 2 hrs post infection measured after 72 hrs by Alexa fluor 488 staining based flow cytometric analysis (reference value: 3.33%). It counts as functional.
Another data set deals with NSC. In words: Cytotoxicity against NSC (unknown origin) assessed as effect on cell viability at 10 to 1000000 nM. Particulars: 1000 µM. It counts as cell-based.
The subject of data set [9] is Human alphaherpesvirus 1. In words: Anti-viral activity against Herpes simplex virus-1 harboring EGFP infected in iPSC-derived neurons assessed as early apoptotic cells at 50 mM treated 2 hrs post infection measured after 72 hrs by Alexa fluor 488 staining based flow cytometric analysis (reference value: 13.2%). It counts as functional.
Another data set deals with Neuron. In words: Cytotoxicity against neurons (unknown origin) assessed as effect on cell viability at 10 to 1000000 nM. The following applies: 1000 µM. The format is cell-based.
A further data set has as its system Vero. In words: Cytotoxicity against African green monkey Vero cells assessed as effect on cell viability at 10 to 1000000 nM. The format is cell-based. The following applies: chlorocebus sabaeus, 1000 µM.
Data set [10] has as its system Human alphaherpesvirus 1. Description: Anti-viral activity against Herpes simplex virus-1 harboring EGFP infected in iPSC-derived neurons assessed as viable cells at 10 mM treated 2 hrs post infection measured after 72 hrs by Alexa fluor 488 staining based flow cytometric analysis (reference value: 17.8%). It counts as functional.
The nature of data set [11]: Cytotoxicity against human induced pluripotent stem cell-derived neurons assessed as morphological changes after 48 to 72 hrs by live/dead fixable aqua dead cell staining based assay. Particulars: induced pluripotent stem cell-derived neuron.
Data set [12] in a line: Cytotoxicity against human induced pluripotent stem cell-derived neurons assessed as effect on cell viability after 24 hrs by live/dead fixable aqua dead cell staining based assay. Particulars: induced pluripotent stem cell-derived neuron.
The test system of data set [13] is Human alphaherpesvirus 1. In words: Anti-viral activity against Herpes simplex virus-1 harboring EGFP infected in iPSC-derived neurons assessed as reduction in ICP0 expression at 10 uM treated 2 hrs post infection measured after 72 hrs by Alexa fluor 488 staining based flow cytometric analysis. It counts as functional.
A short description of data set [14]: Induction of heterochromatinization in Induced pluripotent stem cell-derived neuron (unknown origin) infected with HSV-1 assessed as increase in H3K27 trimethylation at ICP4 gene by chromatin immunoprecipitation based RT-PCR analysis.
Data set [15] deals with Human alphaherpesvirus 1. In words: Anti-viral activity against Herpes simplex virus-1 harboring EGFP infected in iPSC-derived neurons assessed as reduction in ICP0 expression at 50 uM treated 2 hrs post infection measured after 72 hrs by Alexa fluor 488 staining based flow cytometric analysis. It counts as functional.

The structures appear in SMILES notation. Active and inactive are the calls of the source. The rule behind the calls is not given here.

In the case of `CCCCCCn1c(-c2ccc(OCc3ccccc3)cc2)nc2ccccc2c1=O`, the outcome with Human alphaherpesvirus 1 [1] was inactive.

Turning to `COc1ccc(-n2c(-c3ccc(OCc4ccc(Br)cc4)cc3)nc3ccccc3c2=O)cc1`, the Activity stood at 88.9% in the data set with Human alphaherpesvirus 1 [2]; 2.91% with Human alphaherpesvirus 1 [4]; 4.64% with Human alphaherpesvirus 1 [5]; 5.03% with Human alphaherpesvirus 1 [6]; 3.18% in the data set with Human alphaherpesvirus 1 [7]; 0.6% in the data set with Human alphaherpesvirus 1 [8]. Moreover, the Activity entry in the data set with NSC is “Toxic”; in the data set on Human alphaherpesvirus 1 [9] it was 3.36%; with Neuron it was “Toxic”; in the data set with Vero, “Toxic”; in the data set with Human alphaherpesvirus 1 [10], 91.6%. For the same molecule, in the data set on Human alphaherpesvirus 1 [3], the outcome was Active.

In the case of `COc1ccc(-c2nc3ccccc3c(=O)n2-c2ccc(Br)cc2)cc1`, in the data set with Human alphaherpesvirus 1 [1], the outcome was Active.

`O=c1c2ccccc2nc(-c2ccc(OCc3cccc(Br)c3)cc2)n1-c1ccc(Br)cc1`: the result in the data set with Human alphaherpesvirus 1 [3] was Active.

For `O=c1c2ccccc2nc(-c2ccc(OCc3ccc(Br)cc3)cc2)n1-c1ccc(Br)cc1`, the result in the data set with Human alphaherpesvirus 1 [3] was Active.

As for `COc1ccc(-n2c(-c3ccc(Oc4ccc(OC(F)(F)F)cc4)cc3)nc3ccccc3c2=O)cc1`, the result with Human alphaherpesvirus 1 [3] was inactive.

On to `Nc1nc2c(ncn2COCCO)c(=O)[nH]1` [ACYCLOVIR], for which the Activity was found to be 92.6% with Human alphaherpesvirus 1 [2]; 0.76% with Human alphaherpesvirus 1 [4]; 1.36% in the data set on Human alphaherpesvirus 1 [5]; 0.44% in the data set with Human alphaherpesvirus 1 [6]; 7.92% with Human alphaherpesvirus 1 [7]; 1.13% in the data set with Human alphaherpesvirus 1 [8]. The Activity amounted to 6.22% in the data set on Human alphaherpesvirus 1 [9] and 89.6% in the data set with Human alphaherpesvirus 1 [10].

With `O=c1c2ccccc2nc(-c2ccc(OCc3ccccc3)cc2)n1-c1ccc(Br)cc1`, the Activity result in data set [11] is “Toxic”; in data set [12], “Toxic”; in data set [14], “Non-Toxic”. The outcome with Human alphaherpesvirus 1 [13], with Human alphaherpesvirus 1 [15] and in the data set with Human alphaherpesvirus 1 [1] was Active.

As to `COc1ccc(-n2c(-c3ccc(Oc4ccc(Cl)cc4)cc3)nc3ccccc3c2=O)cc1`, the result in the data set on Human alphaherpesvirus 1 [3] was inactive.

Regarding `COc1ccc(-n2c(-c3ccc(OCc4ccccc4)cc3)nc3ccccc3c2=O)cc1`, the Activity result in data set [11] and in [12] was “Toxic” throughout. Besides, the outcome with Human alphaherpesvirus 1 [15] and with Human alphaherpesvirus 1 [1] was Active.

Consider `COc1ccc(-n2c(-c3ccc(Oc4ccccc4)cc3)nc3ccccc3c2=O)cc1`, for which the outcome in the data set with Human alphaherpesvirus 1 [3] was inactive.

For the molecule `O=c1[nH]c(-c2ccc(OCc3ccccc3)cc2)nc2ccccc12`, the result in the data set with Human alphaherpesvirus 1 [1] was inactive.

`COc1ccc(-n2c(-c3ccc(OCc4cccc(Br)c4)cc3)nc3ccccc3c2=O)cc1`: the Activity in the data set with Human alphaherpesvirus 1 [2] is listed as 82%; in the data set with Human alphaherpesvirus 1 [4], 4.31%; in the data set on Human alphaherpesvirus 1 [5] it was 6.1%; in the data set with Human alphaherpesvirus 1 [6], 9.96%; with Human alphaherpesvirus 1 [7] it was 3.24%; in the data set with Human alphaherpesvirus 1 [8], 0.59%. The Activity entry was “Toxic” with NSC; 3.76% in the data set with Human alphaherpesvirus 1 [9]; “Toxic” in the data set with Neuron; “Toxic” in the data set on Vero; 90.1% in the data set with Human alphaherpesvirus 1 [10]. For the same molecule, the outcome with Human alphaherpesvirus 1 [3] was Active.

Regarding `COc1ccc(-n2c(-c3ccc(Nc4ccccc4)cc3)nc3ccccc3c2=O)cc1`, the result in the data set with Human alphaherpesvirus 1 [3] was inactive.

Regarding `COc1ccc(Oc2ccc(-c3nc4ccccc4c(=O)n3-c3ccc(OC)cc3)cc2)cc1`, the outcome in the data set on Human alphaherpesvirus 1 [3] was inactive.

Consider `O=c1c2ccccc2nc(-c2ccc(Br)cc2)n1-c1ccc(Br)cc1`, for which the result in the data set on Human alphaherpesvirus 1 [1] was Active.

Source of the values: ChEMBL document CHEMBL4043249, “Discovery of potent antiviral (HSV-1) quinazolinones and initial structure-activity relationship studies” (Bioorg Med Chem Lett, 2017).
